The source of these data is patent publication US20030175319A1, “Method for controlling termite” (SUMITOMO CHEMICAL COMPANY, LIMITED, priority 2002, published 2003).

In experiment [1] the test system is Formosan subterranean termites. In words: Test Example 2: field test, sheet formulation buried at tree stumps damaged by termites. The note with it: conclusion from Table 2. The class given is in vivo, Coptotermes formosanus. The source says:
In a place termites inhabit, two tree stumps (A and B) damaged by Formosan subterranean termites were found. The distance between A and B is about 500 m. Two wooden blocks (φ75 mm×78 mm) were buried near A and B, respectively.
After all the wooden blocks were damaged by the termites, each of about 60 g of the sheet formulation obtained in Formulation example 2 was buried in place of the damaged wooden blocks at A. On the other hand, the same sheet formulation as Formulation example 2 except that hexaflumuron was used in place of bistrifluron was used at B. Further, two of the sheet formulation were added at A and B respectively, after two weeks. […]
Soldiers are usually in their colony. At emergency, soldiers are observed.

The test system of experiment [2] is Formosan subterranean termites (Coptotermes formosanus). The experiment is described as follows: Test Example 1: mortality of termites released in a plastic cup with the sheet formulation. The format is in vivo. The conditions noted are these: for Mortality (%): 2.5 g sheet formulation, 100 termites. On the procedure:
The sheet formulation obtained in Formulation example 1 or 2 (2.5 g) was put in a plastic cup (8.5 cm in diameter). The plastic cup was set inside a large cup having wet cotton for supplying moisture and 100 Formosan subterranean termites (Coptotermes formosanus) were released in the plastic cup. After 2, 4 and 8 weeks, the mortality of the termites was observed. Further, the same sheet formulation as Formulation example 2 except that hexaflumuron was used in place of bistrifluron was tested for reference.

`O=C(NC(=O)c1c(F)cccc1F)Nc1cc(C(F)(F)F)cc(C(F)(F)F)c1Cl` [bistrifluron, N-[2-chloro-3,5-bis(trifluoromethyl)phenyl]-N′-(2,6-difluorobenzoyl)urea]: the “rapidity of efficacy compared with hexaflumuron” value in experiment [1] and in experiment [2] (conclusion from Table 1) was “more rapid efficacy than hexaflumuron” throughout.
Turning to `O=C(NC(=O)c1c(F)cccc1F)Nc1cc(Cl)c(OC(F)(F)C(F)F)c(Cl)c1` [Hexaflumuron, 1-[3,5-dichloro-4-(1,1,2,2-tetrafluoroethoxy)phenyl]-3-(2,6-difluorobenzoyl)urea], the “Mortality (%)” value was determined as 5% in experiment [2] (after 2 weeks), 34% in experiment [2] (after 4 weeks) and 100% in experiment [2] (after 8 weeks).
